Series [1] addresses T1, DNA-directed RNA polymerase I subunit RPA1 (Homo sapiens, UniProt O95602). Nature of the series: Inhibition of RNA polymerase 1 in human A-375 assessed as RPA194 degradation measured after 3 hrs by Hoechst 33342 staining based assay.
For another series, the target named is T2, Cytochrome P450 1A2 (Homo sapiens, UniProt P05177).
T2 sequence (P05177 whole entry): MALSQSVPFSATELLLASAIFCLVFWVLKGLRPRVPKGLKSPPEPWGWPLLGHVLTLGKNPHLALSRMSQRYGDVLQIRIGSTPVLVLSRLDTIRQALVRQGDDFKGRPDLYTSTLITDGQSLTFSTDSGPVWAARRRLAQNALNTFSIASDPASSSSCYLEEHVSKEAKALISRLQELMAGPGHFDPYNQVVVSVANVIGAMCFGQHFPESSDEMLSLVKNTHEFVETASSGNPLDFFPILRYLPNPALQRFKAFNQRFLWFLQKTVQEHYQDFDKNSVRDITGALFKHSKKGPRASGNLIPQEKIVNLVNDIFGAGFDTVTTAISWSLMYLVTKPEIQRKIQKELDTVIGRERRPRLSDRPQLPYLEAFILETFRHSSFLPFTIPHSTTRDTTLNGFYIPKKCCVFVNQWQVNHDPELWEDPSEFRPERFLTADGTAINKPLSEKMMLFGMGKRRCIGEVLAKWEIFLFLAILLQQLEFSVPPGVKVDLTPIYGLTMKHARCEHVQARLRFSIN
Nature of the series: Inhibition of recombinant human hepatic CYP1A2 expressed in baculovirus insect cell expression system in presence of CEC substrate measured by fluorescence plate reader assay.

In series [2] the target is Voltage-gated inwardly rectifying potassium channel KCNH2 (Homo sapiens, UniProt Q12809). Nature of the series: Inhibition on hERG expressed in HEK293 cells by Qpatch method.
Chain of Voltage-gated inwardly rectifying potassium channel KCNH2 (Q12809 whole entry): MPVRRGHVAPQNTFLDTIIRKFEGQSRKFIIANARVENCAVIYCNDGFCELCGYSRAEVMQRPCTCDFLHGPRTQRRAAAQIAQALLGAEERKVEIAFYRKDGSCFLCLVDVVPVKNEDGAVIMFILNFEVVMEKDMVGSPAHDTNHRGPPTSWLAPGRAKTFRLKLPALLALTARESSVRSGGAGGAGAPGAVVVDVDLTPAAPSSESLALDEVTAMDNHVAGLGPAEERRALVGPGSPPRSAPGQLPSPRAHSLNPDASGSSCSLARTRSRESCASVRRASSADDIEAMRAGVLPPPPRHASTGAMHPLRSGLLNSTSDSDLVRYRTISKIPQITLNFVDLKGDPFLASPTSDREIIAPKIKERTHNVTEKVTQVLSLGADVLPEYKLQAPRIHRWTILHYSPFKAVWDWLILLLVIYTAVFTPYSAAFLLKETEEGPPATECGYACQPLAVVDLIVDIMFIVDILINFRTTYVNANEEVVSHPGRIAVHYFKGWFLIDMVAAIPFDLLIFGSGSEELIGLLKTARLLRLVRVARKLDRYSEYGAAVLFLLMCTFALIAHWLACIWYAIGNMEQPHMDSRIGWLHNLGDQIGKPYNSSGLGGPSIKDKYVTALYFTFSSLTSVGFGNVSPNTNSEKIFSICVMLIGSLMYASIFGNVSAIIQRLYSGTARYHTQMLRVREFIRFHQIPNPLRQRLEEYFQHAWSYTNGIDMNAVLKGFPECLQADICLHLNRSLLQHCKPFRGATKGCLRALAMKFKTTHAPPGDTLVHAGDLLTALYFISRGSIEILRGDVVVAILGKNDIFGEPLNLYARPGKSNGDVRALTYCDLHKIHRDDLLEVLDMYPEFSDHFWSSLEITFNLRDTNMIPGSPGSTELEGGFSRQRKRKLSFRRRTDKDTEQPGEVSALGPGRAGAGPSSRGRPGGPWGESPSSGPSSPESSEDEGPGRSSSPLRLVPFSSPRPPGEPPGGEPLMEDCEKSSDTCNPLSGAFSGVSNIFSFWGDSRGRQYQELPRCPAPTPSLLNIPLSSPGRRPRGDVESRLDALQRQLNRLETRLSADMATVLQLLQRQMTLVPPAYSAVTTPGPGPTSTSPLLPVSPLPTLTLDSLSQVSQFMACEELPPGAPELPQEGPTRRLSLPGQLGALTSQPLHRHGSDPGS
Series [3] is described as follows: Volume of distribution at steady state in CD1 mouse at 1 mg/kg, iv. The note with it: in vivo, read-out: Vdss. The series is classed as ADME, organism-based.
Series [4] can be described thus: Clearance in CD1 mouse at 1 mg/kg, iv. The settings on record: in vivo. It is filed as ADME, organism-based.
A short description of series [5]: Half life in CD1 mouse at 1 mg/kg, iv. It is filed as ADME, organism-based. The settings on record: in vivo.
Series [6] can be described thus: AUC (0 to infinity) in CD1 mouse at 30 mg/kg, po. The series is classed as ADME, organism-based. On the set-up: route oral, time infinity, dose 30 mg/kg. The settings on record: in vivo.
The nature of series [7]: AUC (0 to infinity) in CD1 mouse at 1 mg/kg, iv. The note with it: in vivo. On the set-up: time infinity, route intravenous, dose 1 mg/kg. The series is classed as ADME, organism-based.
Series [8] is described as follows: Cmax in CD1 mouse at 30 mg/kg, po. It is filed as ADME, organism-based. On the set-up: route oral, dose 30 mg/kg. The settings on record: in vivo.
The subject of series [9] is A-375. Nature of the series: Cytotoxicity against human A-375 cells assessed as reduction in cell viability incubated for 72 hrs by cell titer glo luminescent assay. The settings on record: A-375, 72 h.
A short description of series [10]: Oral bioavailability in CD1 mouse at 30 mg/kg. It is filed as ADME, organism-based. The note with it: in vivo.
Series [11] in a line: Metabolic stability in mouse liver microsomes at 1 uM assessed as intrinsic clearance measured after 45 mins by LC-MS/MS analysis. It is filed as ADME, Microsome. The note with it: read-out: CLH. A general note: Liver microsomes are vesicles of endoplasmic reticulum, rich in cytochrome P450 enzymes.
The target of series [12] is T1, DNA-directed RNA polymerase I subunit RPA1. Nature of the series: Inhibition of RPA1 in human A-375 cells assessed as downregulation of RPA1 gene at 1 uM incubated for 6 hrs measured by qPCR analysis. The series is classed as cell-based. Background: In qPCR the cycle at which signal appears reflects the starting amount.
The test system of series [13] is A-375. The series is described as follows: Inhibition of RPA2 in human A-375 cells assessed as downregulation of RPA2 gene at 1 uM incubated for 6 hrs measured by qPCR analysis. It is filed as cell-based.
Series [14] has as its system A-375. The series is described as follows: Inhibition of RPA3 in human A-375 cells assessed as downregulation of RPA3 gene at 1 uM incubated for 6 hrs measured by qPCR analysis. The series is classed as cell-based.
Series [15] is described as follows: Cmax in CD1 mouse at 30 mg/kg, ip. The note with it: in vivo.
Series [16] can be described thus: Half life in CD1 mouse at 30 mg/kg, ip. The note with it: in vivo.
The nature of series [17]: AUC (0 to infinity) in CD1 mouse at 30 mg/kg, ip. The settings on record: in vivo.

We go through 44 compounds from ChEMBL document CHEMBL5036382 (ACS Med Chem Lett, 2022).

Molecules are shown by their SMILES. Activity calls are given as the source filed them. Some results are limits rather than exact numbers.

T1 sequence (O95602 whole entry): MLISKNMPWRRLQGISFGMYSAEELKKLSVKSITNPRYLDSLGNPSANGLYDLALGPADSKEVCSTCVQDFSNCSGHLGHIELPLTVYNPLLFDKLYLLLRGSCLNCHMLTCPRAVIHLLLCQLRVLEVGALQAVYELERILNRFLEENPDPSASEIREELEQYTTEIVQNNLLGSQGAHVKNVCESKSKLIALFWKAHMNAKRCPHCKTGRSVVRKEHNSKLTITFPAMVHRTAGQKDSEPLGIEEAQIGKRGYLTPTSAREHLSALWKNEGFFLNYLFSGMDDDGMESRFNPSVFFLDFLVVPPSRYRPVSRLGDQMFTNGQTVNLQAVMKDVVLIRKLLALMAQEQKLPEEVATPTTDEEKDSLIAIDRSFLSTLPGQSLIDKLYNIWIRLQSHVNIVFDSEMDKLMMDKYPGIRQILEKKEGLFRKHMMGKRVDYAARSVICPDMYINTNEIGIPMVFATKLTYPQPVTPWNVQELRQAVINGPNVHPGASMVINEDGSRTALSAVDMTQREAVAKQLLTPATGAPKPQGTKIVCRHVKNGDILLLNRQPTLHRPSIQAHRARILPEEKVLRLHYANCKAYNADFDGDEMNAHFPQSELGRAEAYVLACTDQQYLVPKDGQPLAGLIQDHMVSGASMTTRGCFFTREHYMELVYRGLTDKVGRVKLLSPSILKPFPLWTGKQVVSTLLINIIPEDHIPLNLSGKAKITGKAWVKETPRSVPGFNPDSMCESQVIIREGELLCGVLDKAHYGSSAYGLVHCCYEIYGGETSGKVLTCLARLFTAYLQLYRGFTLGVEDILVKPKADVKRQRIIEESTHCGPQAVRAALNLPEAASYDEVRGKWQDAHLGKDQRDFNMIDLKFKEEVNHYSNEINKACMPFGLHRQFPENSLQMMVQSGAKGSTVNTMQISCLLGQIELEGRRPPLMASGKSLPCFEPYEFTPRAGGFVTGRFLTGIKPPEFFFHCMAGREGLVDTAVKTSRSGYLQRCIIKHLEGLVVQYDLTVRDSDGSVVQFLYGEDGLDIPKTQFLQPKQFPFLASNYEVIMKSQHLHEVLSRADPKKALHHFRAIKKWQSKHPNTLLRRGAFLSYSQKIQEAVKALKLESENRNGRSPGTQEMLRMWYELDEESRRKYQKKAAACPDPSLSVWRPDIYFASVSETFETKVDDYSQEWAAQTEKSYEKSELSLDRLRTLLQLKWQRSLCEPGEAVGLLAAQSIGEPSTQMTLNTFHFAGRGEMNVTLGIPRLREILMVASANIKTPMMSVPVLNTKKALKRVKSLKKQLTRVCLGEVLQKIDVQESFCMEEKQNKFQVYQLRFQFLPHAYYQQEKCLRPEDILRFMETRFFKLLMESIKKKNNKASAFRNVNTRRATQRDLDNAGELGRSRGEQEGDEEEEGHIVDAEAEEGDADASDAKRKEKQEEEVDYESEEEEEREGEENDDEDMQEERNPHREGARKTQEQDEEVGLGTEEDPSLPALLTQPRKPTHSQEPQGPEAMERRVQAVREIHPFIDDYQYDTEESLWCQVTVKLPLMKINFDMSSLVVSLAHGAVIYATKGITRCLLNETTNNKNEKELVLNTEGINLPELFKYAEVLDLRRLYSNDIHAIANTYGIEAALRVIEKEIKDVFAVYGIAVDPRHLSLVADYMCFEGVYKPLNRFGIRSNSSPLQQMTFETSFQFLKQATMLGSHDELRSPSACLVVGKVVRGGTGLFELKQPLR

As to `O=C(NCCN1CCCC(F)C1)c1cccn2c(=O)c3cc4ccccc4cc3nc12` (stereo not drawn), the IC50 in series [1] was over 10000 nM. Turning to `O=C(NCCN1CCCC1)c1cccn2c(=O)c3cc4c(cc3nc12)CCCC4`, the IC50 in series [1] was 1390 nM. Consider `O=C(NCCN1CCC(F)(F)CC1)c1cccn2c(=O)c3cc4ccccc4cc3nc12`, for which the IC50 in series [1] is over 10000 nM. Take `CC(C)N1CCCCC1CNC(=O)c1cccn2c(=O)c3cc4ccccc4cc3nc12` (stereo not drawn): the IC50 in series [1] turned out to be 10000 nM. `O=C(NCCN1CC[C@H](F)C1)c1cccn2c(=O)c3ccc4ccccc4c3nc12`: the results for the IC50 (on Cytochrome P450 1A2; in series [2]; in series [1]) were 4500 nM, over 10000 nM and over 10000 nM, respectively. With `O=C(NCCN1CCCCC1)c1cccn2c(=O)c3ccc4ccccc4c3nc12`, the figures for the IC50 (on Cytochrome P450 1A2; in series [2]; in series [1]) were over 10000 nM, 3720 nM and 640 nM, respectively. As for `O=C(NCCN1CCCC1)c1c(O)ccn2c(=O)c3cc4ccccc4cc3nc12`, in series [1], the IC50 was found to be 5500 nM. `O=C(NCCN1CCCC1)c1cccn2c(=O)c3ccc4ccccc4c3nc12`: the Vd in series [3] turned out to be 33.2 L/kg. For the same compound, in series [4], the clearance came out at 508 mL/min/kg. Moreover, the half-life is 1.22 h in series [5] and 7.52 h in series [16]. Also, the AUC(0-inf) in series [6] is 122 ng·h/mL; in [7], 30.8 ng·h/mL; in [17], 518 ng·h/mL. For the same compound, the results for the Cmax in series [8] and in series [15] were 13.9 ng/mL and 83 ng/mL, respectively. Further, the values for the concentration for half-maximal inhibition (IC50) (with A-375 [9]; in series [1]) were 38 nM and 210 nM, respectively. Besides, the bioavailability in series [10] amounted to 13%. Moreover, the microsomal CLint at 1 µM in [11] stood at 132 µL/min/mg. Moreover, the inhibition entry in series [12] is “Active”. Besides, the inhibition result in the series with A-375 [13] and in the series with A-375 [14] was “inactive” in each case. Regarding `O=C(NCCN1CCCC1)c1cccn2c(=O)c3c(ccc4ccccc43)nc12`, the IC50 in series [1] was over 10000 nM. Consider `O=C(NCC1CCCCN1)c1cccn2c(=O)c3cc4ccccc4cc3nc12` (stereo not drawn), for which, in series [1], the 50% inhibitory concentration (IC50) was found to be 590 nM. On to `COc1cc2nc3c(C(=O)NCCN4CCCC4)cccn3c(=O)c2cc1OC`, for which the IC50 in [1] was found to be 6860 nM.

On to `O=C(NCCN1CCCC1)c1cccn2c(=O)c3cc4c(cc3nc12)OC(F)(F)O4`, for which the half-inhibitory concentration (IC50) in [1] stood at 420 nM. For `O=C(NCCN1CCCC1)c1cccn2c1nc1cc3ccccc3cc12`, the IC50 in series [1] was 1700 nM.

As to `O=C(NCCN1CCCC1)c1cccn2c1nc1cc3ccccc3nc12`, the IC50 in [1] came out at 6000 nM.

`O=C(NCCN1CCCC1)c1cccn2c(=O)c3cc4c(cc3nc12)OCO4`: the IC50 in series [1] is 540 nM.

As to `O=C(NCCO)c1cccn2c(=O)c3ccc4ccccc4c3nc12`, the results for the IC50 (at Cytochrome P450 1A2; in [2]; in series [1]) were 100 nM, over 10000 nM and 9500 nM, respectively. As to `CCN1CCCCC1CNC(=O)c1cccn2c(=O)c3cc4ccccc4cc3nc12` (stereo not drawn), in series [1], the IC50 was determined as 990 nM. As for `O=C(NCCN1CCS(=O)(=O)CC1)c1cccn2c(=O)c3cc4ccccc4cc3nc12`, the 50% inhibitory concentration (IC50) in [1] was over 10000 nM. With `CN1CCCC1CNC(=O)c1cccn2c(=O)c3cc4ccccc4cc3nc12` (stereo not drawn), the IC50 in series [1] worked out at 3940 nM. `O=C(NCCN1CCC(O)(O)CC1)c1cccn2c(=O)c3cc4ccccc4cc3nc12`: in [1], the IC50 turned out to be 600 nM.

Take `N#CC1CCN(CCNC(=O)c2cccn3c(=O)c4cc5ccccc5cc4nc23)CC1`: the IC50 in [1] turned out to be 740 nM. As for `CC(NC(=O)c1cccn2c(=O)c3cc4ccccc4cc3nc12)C1CCCCN1` (stereo not drawn), the IC50 in [1] amounted to 920 nM. Consider `Cc1cc2nc3c(C(=O)NCCN4CCCC4)cccn3c(=O)c2cc1C`, for which the half-maximal inhibitory concentration (IC50) in series [1] was found to be 1160 nM. Consider `O=C(NCCN1CCCC1)c1cccn2c(=O)c3cc4c(cc3nc12)OCCO4`, for which, in series [1], the IC50 was 1040 nM. On to `O=C(NCCN1CCC(F)(F)C1)c1cccn2c(=O)c3cc4ccccc4cc3nc12`, for which, in [1], the IC50 was over 10000 nM. For `CN(C)CCNC(=O)c1cccn2c(=O)c3ccc4ccccc4c3nc12`, in series [1], the IC50 amounted to 160 nM. Turning to `O=C(NCCN1CCC(F)C1)c1cccn2c(=O)c3cc4ccccc4cc3nc12` (stereo not drawn), the IC50 in series [1] stood at 5750 nM. As for `O=C(NCCN1CCC(F)CC1)c1cccn2c(=O)c3cc4ccccc4cc3nc12`, the IC50 in series [1] stood at 780 nM. As to `O=C(NCCN1CCCC1)c1cccn2c(=O)c3c(ccc4cnncc43)nc12`, the IC50 in [1] stood at 4200 nM. On the same count and under the same terms, as for `CN(C)CCCNC(=O)c1cccn2c(=O)c3ccc4ccccc4c3nc12`, the figure is over 10000 nM. Turning to `CN(C)CCNC(=O)c1cccn2c(=O)c3cc4ccccc4cc3nc12`, the inhibition entry in the series with A-375 [13] and in the series with A-375 [14] was “inactive” throughout. `CN1CCC(NC(=O)c2cccn3c(=O)c4ccc5ccccc5c4nc23)CC1`: the IC50 on Cytochrome P450 1A2 was over 10000 nM; in [2], 7390 nM; in [1], over 10000 nM. Consider `O=C(NCCN1CC[C@@H](F)C1)c1cccn2c(=O)c3ccc4ccccc4c3nc12`, for which the IC50 is 2100 nM at Cytochrome P450 1A2, 8260 nM in series [2] and 1900 nM in [1]. Take `O=C(NCC1CCCN1)c1cccn2c(=O)c3cc4ccccc4cc3nc12` (stereo not drawn): the IC50 in series [1] turned out to be 780 nM.

Regarding `O=C(NC1CNC1)c1cccn2c(=O)c3ccc4ccccc4c3nc12`, the IC50 was 200 nM on Cytochrome P450 1A2, 3970 nM in series [2] and over 10000 nM in series [1]. As for `O=C(NCCCN1CCCC1)c1cccn2c(=O)c3ccc4ccccc4c3nc12`, in [1], the IC50 was over 10000 nM.

Regarding `CN1CCOCC1CNC(=O)c1cccn2c(=O)c3cc4ccccc4cc3nc12` (stereo not drawn), the IC50 in [1] came to 1000 nM. Regarding `CN1CCN(CCNC(=O)c2cccn3c(=O)c4ccc5ccccc5c4nc23)CC1`, the IC50 (on Cytochrome P450 1A2; in series [2]; in series [1]) was over 10000 nM in each case. On to `O=C(NCCN1CCCC(F)(F)C1)c1cccn2c(=O)c3cc4ccccc4cc3nc12`, for which the IC50 in [1] is over 10000 nM. On to `CNCCNC(=O)c1cccn2c(=O)c3ccc4ccccc4c3nc12`, for which the IC50 on Cytochrome P450 1A2 is 300 nM; in [2], over 10000 nM; in series [1], 470 nM. For the compound `O=C(NCCN1CCSCC1)c1cccn2c(=O)c3cc4ccccc4cc3nc12`, in [1], the IC50 turned out to be 10000 nM. Regarding `O=C(NCC1CCCC(CO)N1)c1cccn2c(=O)c3cc4ccccc4cc3nc12` (stereo not drawn), in series [1], the 50% inhibitory concentration (IC50) was 650 nM. For `CCN(CC)CCNC(=O)c1cccn2c(=O)c3ccc4ccccc4c3nc12`, the IC50 in [1] stood at 600 nM. In the case of `NCCNC(=O)c1cccn2c(=O)c3ccc4ccccc4c3nc12`, the IC50 (on Cytochrome P450 1A2; in [2]; in [1]) was over 10000 nM in each case.

Broadly, the IC50 is the concentration that gives 50% inhibition. As a reminder, the clearance is a measure of how efficiently the substance is removed, as volume per time. The half-life is the time needed for the level to fall by half in the phase considered. Low readings indicate fast loss, high ones slow loss. Broadly, the AUC(0-inf) is the area under the concentration-time curve extrapolated to infinity. A low value points to less exposure. In general, Cmax refers to the peak of the concentration-time curve. For orientation: bioavailability means dose-corrected exposure relative to a reference, in per cent.
